PubChem BioAssay AID328 (DTP/NCI, 2004)
Values joined by “and” are separate entries in the source; they are usually repeats but may differ in a detail not shown here. Equal values may be shown once. Toxic doses and inconclusive results are not listed. Rule for the calls: active = survival T/C of 150% or more; inactive = T/C below 125% in these data.

Test system: BDF1 mice, P388 leukemia ip, median survival T/C
Assay: NCI In Vivo Anticancer Drug Screen. Data for tumor model P388 Leukemia (intraperitoneal) in B6D2F1 (BDF1) mice
Conditions: endpoint: median survival time, higher = longer survival
Summary of the method: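 T/C = treated-group survival ÷ vehicle-control survival; tumour transplanted into mice before dosing.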

[1] = dose: 100.0 mg/kg/injection, schedule: Q04DX003 (ip), vehicle: saline
[2] = dose: 200.0 mg/kg/injection, schedule: Q04DX003 (ip), vehicle: saline
[3] = dose: 400.0 mg/kg/injection, schedule: Q04DX003 (ip), vehicle: saline
[4] = dose: 50.0 mg/kg/injection, schedule: Q01DX009 (ip), vehicle: saline with Tween-80
[5] = dose: 100.0 mg/kg/injection, schedule: Q01DX009 (ip), vehicle: saline with Tween-80
[6] = dose: 200.0 mg/kg/injection, schedule: Q01DX009 (ip), vehicle: saline with Tween-80
[7] = dose: 12.5 mg/kg/injection, schedule: Q04DX003 (ip), vehicle: saline with Tween-80
[8] = dose: 25.0 mg/kg/injection, schedule: Q04DX003 (ip), vehicle: saline with Tween-80
[9] = dose: 50.0 mg/kg/injection, schedule: Q04DX003 (ip), vehicle: saline with Tween-80
[10] = dose: 200.0 mg/kg/injection, schedule: Q01DX009 (ip), vehicle: Klucel (hydroxypropylcellulose) (HPC)
[11] = dose: 400.0 mg/kg/injection, schedule: Q01DX009 (ip), vehicle: Klucel (hydroxypropylcellulose) (HPC)
[12] = dose: 50.0 mg/kg/injection, schedule: Q01DX009 (ip), vehicle: saline
[13] = dose: 200.0 mg/kg/injection, schedule: Q01DX009 (ip), vehicle: saline

Measured: T/C

C[C@]12C=CC(=O)C=C1CC[C@@H]1[C@@H]2C(=O)C[C@@]2(C)[C@H]1CC[C@]2(O)C(=O)CO
inactive: dose: 0.8 mg/kg/injection, schedule: Q01DX009 (ip), vehicle: carboxymethylcellulose (CMC) 90 % of control | dose: 1.6 mg/kg/injection, schedule: Q01DX009 (ip), vehicle: carboxymethylcellulose (CMC) 99 % of control | dose: 3.12 mg/kg/injection, schedule: Q01DX009 (ip), vehicle: carboxymethylcellulose (CMC) 99 % of control | dose: 6.25 mg/kg/injection, schedule: Q01DX009 (ip), vehicle: carboxymethylcellulose (CMC) 89 % of control and 103 % of control | dose: 6.25 mg/kg/injection, schedule: Q03HX008 (ip), vehicle: saline 107 % of control | dose: 6.25 mg/kg/injection, schedule: Q03HX016 (ip), vehicle: saline 100 % of control | dose: 6.25 mg/kg/injection, schedule: Q03HX024 (ip), vehicle: saline 100 % of control | dose: 12.5 mg/kg/injection, schedule: Q01DX009 (ip), vehicle: carboxymethylcellulose (CMC) 87 % of control and 89 % of control | dose: 12.5 mg/kg/injection, schedule: Q03HX008 (ip), vehicle: saline 100 % of control | dose: 12.5 mg/kg/injection, schedule: Q03HX016 (ip), vehicle: saline 100 % of control | dose: 12.5 mg/kg/injection, schedule: Q03HX024 (ip), vehicle: saline 87 % of control | dose: 25.0 mg/kg/injection, schedule: Q03HX008 (ip), vehicle: saline 100 % of control | dose: 25.0 mg/kg/injection, schedule: Q03HX016 (ip), vehicle: saline 100 % of control | dose: 25.0 mg/kg/injection, schedule: Q03HX024 (ip), vehicle: saline 87 % of control | dose: 44.0 mg/kg/injection, schedule: Q04DX003 (sc), vehicle: Klucel (hydroxypropylcellulose) (HPC) 113 % of control | dose: 50.0 mg/kg/injection, schedule: Q01DX001 (ip), vehicle: saline 107 % of control | dose: 50.0 mg/kg/injection, schedule: Q01DX009 (ip), vehicle: carboxymethylcellulose (CMC) 90 % of control and 93 % of control | dose: 50.0 mg/kg/injection, schedule: Q03HX008 (ip), vehicle: saline 100 % of control | dose: 50.0 mg/kg/injection, schedule: Q03HX016 (ip), vehicle: saline 107 % of control | dose: 50.0 mg/kg/injection, schedule: Q03HX024 (ip), vehicle: saline 87 % of control | dose: 50.0 mg/kg/injection, schedule: Q04DX003 (ip), vehicle: saline 93 % of control | dose: 50.0 mg/kg/injection, schedule: Q08DX002 (ip), vehicle: saline 87 % of control | dose: 67.0 mg/kg/injection, schedule: Q04DX003 (sc), vehicle: Klucel (hydroxypropylcellulose) (HPC) 114 % of control | dose: 100.0 mg/kg/injection, schedule: Q01DX001 (ip), vehicle: saline 114 % of control | dose: 100.0 mg/kg/injection, schedule: Q03HX008 (ip), vehicle: saline 100 % of control | dose: 100.0 mg/kg/injection, schedule: Q03HX016 (ip), vehicle: saline 114 % of control | dose: 100.0 mg/kg/injection, schedule: Q03HX024 (ip), vehicle: saline 87 % of control | [1] 106 % of control | dose: 100.0 mg/kg/injection, schedule: Q04DX003 (sc), vehicle: Klucel (hydroxypropylcellulose) (HPC) 113 % of control | dose: 100.0 mg/kg/injection, schedule: Q08DX002 (ip), vehicle: saline 87 % of control | dose: 200.0 mg/kg/injection, schedule: Q01DX001 (ip), vehicle: saline 114 % of control | [2] 100 % of control | dose: 200.0 mg/kg/injection, schedule: Q08DX002 (ip), vehicle: saline 100 % of control | dose: 400.0 mg/kg/injection, schedule: Q01DX001 (ip), vehicle: saline 121 % of control | [3] 106 % of control | dose: 400.0 mg/kg/injection, schedule: Q08DX002 (ip), vehicle: saline 87 % of control | dose: 800.0 mg/kg/injection, schedule: Q01DX001 (ip), vehicle: saline 121 % of control | dose: 800.0 mg/kg/injection, schedule: Q04DX003 (ip), vehicle: saline 106 % of control | dose: 800.0 mg/kg/injection, schedule: Q08DX002 (ip), vehicle: saline 100 % of control

CC(C)NC(=O)C12CC3CC(CC(C3)C1)C2
inactive: [4] 92 % of control | [5] 87 % of control | [6] 100 % of control

Cc1ccc(C)c(NC(=O)c2ccc(Cl)cc2)c1
inactive: dose: 100.0 mg/kg/injection, schedule: Q01DX001 (ip), vehicle: saline with Tween-80 104 % of control | dose: 200.0 mg/kg/injection, schedule: Q01DX001 (ip), vehicle: saline with Tween-80 104 % of control | dose: 400.0 mg/kg/injection, schedule: Q01DX001 (ip), vehicle: saline with Tween-80 100 % of control

NC1CCCCC1.[O]=[Cr](=[O])([OH])[OH]
inactive: dose: 6.25 mg/kg/injection, schedule: Q01DX009 (ip), vehicle: saline 100 % of control | dose: 12.5 mg/kg/injection, schedule: Q01DX009 (ip), vehicle: saline 90 % of control

COc1cc(C=NCCN=Cc2cc(OC)c(OC)c(OC)c2)cc(OC)c1OC
inactive: [7] 111 % of control | [8] 107 % of control | [9] 92 % of control | dose: 200.0 mg/kg/injection, schedule: Q04DX003 (ip), vehicle: saline with Tween-80 95 % of control

c1ccc(-c2nc3ncccn3n2)cc1
inactive: dose: 25.0 mg/kg/injection, schedule: Q01DX009 (ip), vehicle: saline with Tween-80 97 % of control | [4] 106 % of control and 111 % of control | [5] 104 % of control and 120 % of control | [6] 104 % of control and 112 % of control

O=C(C[n+]1ccc2ccccc2c1)c1ccccc1
inactive: [7] 100 % of control | [8] 100 % of control | [9] 100 % of control

NC1=NS(=O)(=O)N=C(N)C1=NNc1cccc(Cl)c1
inactive: [4] 94 % of control | [5] 103 % of control | [6] 92 % of control

Cc1ccc(S(=O)(=O)N2CCC(=O)c3ccc(Cl)cc32)cc1
inactive: dose: 100.0 mg/kg/injection, schedule: Q04DX003 (ip), vehicle: Klucel (hydroxypropylcellulose) (HPC) 100 % of control | [10] 100 % of control | dose: 200.0 mg/kg/injection, schedule: Q04DX003 (ip), vehicle: Klucel (hydroxypropylcellulose) (HPC) 104 % of control | [11] 95 % of control | dose: 400.0 mg/kg/injection, schedule: Q04DX003 (ip), vehicle: Klucel (hydroxypropylcellulose) (HPC) 104 % of control

Cc1ccc([N+](=O)[O-])cc1NC(=O)Nc1ccc(S(N)(=O)=O)cc1
inactive: dose: 100.0 mg/kg/injection, schedule: Q01DX009 (ip), vehicle: Klucel (hydroxypropylcellulose) (HPC) 100 % of control | [10] 100 % of control | [11] 100 % of control

O=C1CC=C(Nc2ccc(Br)cc2)C(=O)O1
inactive: dose: 25.0 mg/kg/injection, schedule: Q01DX009 (ip), vehicle: saline 99 % of control | [12] 101 % of control | dose: 100.0 mg/kg/injection, schedule: Q01DX009 (ip), vehicle: saline 105 % of control | [1] 112 % of control | [13] 92 % of control | [2] 91 % of control | dose: 400.0 mg/kg/injection, schedule: Q01DX009 (ip), vehicle: saline 99 % of control | [3] 107 % of control

CCCCOC(=O)C1(N)CCCC1
inactive: [12] 104 % of control | dose: 150.0 mg/kg/injection, schedule: Q01DX009 (ip), vehicle: saline with Tween-80 120 % of control | [13] 109 % of control

S=c1nc(-c2ccccc2)c(-c2ccccc2)n[nH]1
inactive: dose: 20.0 mg/kg/injection, schedule: Q01DX001 (ip), vehicle: other 95 % of control | dose: 40.0 mg/kg/injection, schedule: Q01DX001 (ip), vehicle: other 86 % of control | dose: 40.0 mg/kg/injection, schedule: Q04DX003 (ip), vehicle: saline with Tween-80 104 % of control | dose: 75.0 mg/kg/injection, schedule: Q01DX001 (ip), vehicle: other 122 % of control | dose: 75.0 mg/kg/injection, schedule: Q04DX003 (ip), vehicle: saline with Tween-80 108 % of control | dose: 150.0 mg/kg/injection, schedule: Q01DX001 (ip), vehicle: other 90 % of control | dose: 150.0 mg/kg/injection, schedule: Q04DX003 (ip), vehicle: saline with Tween-80 116 % of control
